Data: patent publication US11357786B2, “Synthetic disugar hydrocarbons as natural analogs to control microbial behaviors” (Syracuse University, priority 2014, dated 2022)
Entries after “also recorded” stand apart in the source; their conditions may differ.

Columns and labels:
Assay type in all cases: cell-based, Pseudomonas aeruginosa
PAO1 biofilm [1] = test: Crystal violet dye based biofilm inhibition assay, maltose derivatives (Example 1); details: 110 μM, 24 h, CV assay
Protocol: A crystal violet (CV) assay was used to measure the amount of PAO1 biofilm formed after 24 h of bacterial inoculation. The fluorescence of green fluorescent proteins (GFP) expressed by PAO1-GFP was measured to directly quantify bacterial adhesion on polystyrene black 96 well plates with and without maltose derivatives after 2 h of bacterial inoculation. To evaluate the potential of maltose derivatives as both anti-biofilm and anti-adhesion agents, they were compared to a brominated furanone (BF8) known to inhibit biofilm formation, and two generic surfactants, sodium dodecyl sulfate (SDS) and tetra (ethylene glycol) monododecyl ether (C12EG4OH). […] P. aeruginosa strain PAO1-EGFP that constitutively producing green fluorescent protein was allowed to form biofilm on sterile steel coupons.
Inhibitory effect of all the maltose hydrocarbons on P. aeruginosa biofilm formation was determined by crystal violet dye based biofilm inhibition assays. Overnight culture of wild type P. aeruginosa (PAO1) was sub cultured to an OD600 of 0.01 into the 95:5 M9+:Lb medium. 200 μL of the sub culture was aliquoted into the wells of 96 well polystyrene microtiter plate when it reached the OD600 of 0.1. Predetermined concentrations of the test compounds were then added to the respective wells containing sub culture. Sample plates were wrapped in GLAD Press n′ Seal® followed by incubation under stationary conditions for 24 h at 37° C. After incubation the media was discarded and the plates were washed with water and dried for 1 h at 37° C. The sample plates were stained with 200 μL of 0.1% aqueous solution of crystal violet (CV) and followed by incubation at ambient temperature for 20 min. The CV stain was then discarded and the plates were washed with water. The remaining biofilm adhered stain was re-solubilized with 200 μL of 30% acetic acid. After the stain was dissolved (15 minutes), 100 μL of the solubilized CV was transferred from each well into the corresponding wells of a new polystyrene microtiter dish. Biofilm inhibition was quantified by measuring the OD600 of each well in which a negative control lane wherein no biofilm was formed served as a background and was subtracted out. The percent inhibition was calculated by the comparison of the OD600 for biofilm grown in the absence of compound (control) versus biofilm grown in the presence of compound under identical conditions.
Predetermined amounts maltose derivatives stock solution was added to the 200 μL bacterial culture in 96 well plate so that the final concentration of the agent reaches the desired values of 1, 5, 10, 20, 40, 85, 113, 140 μM. Biofilm inhibition and dispersion assay was carried as described previously.

[2] = system: nonswarming P. aeruginosa mutant rhlA; test: Swarming motility of nonswarming rhlA mutant on soft agar (reactivation / agonist assay); details: 85 μM in soft agar (0.5%), 24 h
Excerpt: Using nonswarming mutant to screen for swarming agonists and wild type P. aeruginosa for swarming antagonists. The transposon mutant, rhlA (genotype, rhlA-E08:ISphoA/hah)39 of P. aeruginosa (PAO1), that impairs the gene that is responsible for synthesizing rhamnolipids is completely incapable of a swarming motility. […] Based on this inference, a rhlA mutant was used in a swarming experiment to screen the saccharide-hydrocarbons for agonists that can reactivate the swarming motility of rhlA.
(§1) Swarm agar plates were based on M8 medium supplemented with 0.2% glucose, 0.5% casamino acid, 1 mM MgSO4 and […]. 17 For each set of experiment all the swarm plates were poured from same batch of agar and allowed to dry for 1 h before inoculation of bacteria. Bacterial culture (3 μl) (wild type PAO1 or rhlA mutant) with OD600 between […] was inoculated on the solidified agar plates. Swarm agar plates were incubated at 37° C. for 12 h and then incubated for additional 12 h at room temp. Chronological images of swarm plates were taken using a camera. To measure swarming area, sizes of the petridish in all swarming images were adjusted to a pre-assigned diameter and images were printed on copying paper (Xerox-business 4200). Weight of a 1 cm^2 copy paper square was roughly ˜8.0 mg. swarming images on the copy paper were cut and weighed, the swarm area was calculated by dividing the weight of image by weight of 1 cm^2 square (8 mg).
(§2) Swarm agar plates were made using M8 medium supplemented with 0.2% glucose, 0.5% casamino acid, 1 mM MgSO4 and solidified with 0.5% Bacto agar. 24 Bacterial culture with OD600 between 0.4 to 0.6 was inoculated as 3 μl aliquots. Swarm agar plates were incubated at 37° C. for 12 h and then incubated for additional 12 h at rt. For each set of experiment all the swarm plates were poured from same batch of agar and allowed to dry for 1 h before inoculation of bacteria.

1-day old PAO1 biofilm = test: Crystal violet assay for dispersion of 1-day old biofilm, DSHs (Examples 2 and 4); details: 160 μM, another 24 h
Protocol: (§3) The effect that DSHs have on the adhesion of PAO1-EGFP on polystyrene surface (microtiter plate) was also examined. PAO1-EGFP is a P. aeruginosa strain that constitutively expresses green fluorescent protein. In the adhesion assays, PAO1-EGFP was grown in microtiter plate for 24-hours in LB-media with (160 μM) or without DSHs. After 24-hours, the fluorescent signal obtained from surface adhered PAO1-EGFP was measured. Percent reduction in fluorescence was calculated by comparing fluorescent signal from PAO1-EGFP grown in LB-media with the signal from wells that had DSHs (FIG. 29A). To study the effect of DSHs on biofilm formation, Pseudomonas aeruginosa (PAO1) was grown in LB-media with (160 μM) or without DSHs at 37° C. under static conditions within wells of microtiter plates. After 24 hours, the surface attached biofilms adhering to the bottom of the wells were stained with crystal-violet dye and the biofilm was quantified by measuring absorbance at 600 nm (OD600). The percent inhibition was calculated by comparing biofilm content of wells with no added agents (control) with the biofilm content from wells that had 160 μM of DSHs (FIG. 29A). Similar to inhibition, the surface attached biofilm after dispersion with DSHs was quantified with crystal-violet staining and absorbance measurement at 600 nm, except that for dispersion, biofilm was first grown for 1 day in just LB-media without any DSHs after which DSHs were added and plates were incubated for additional 24 hours followed by quantification (FIG. 29B).
Crystal violet based assay for quantifying dispersion of 1-day old PAO1 biofilms were Plate for set up similar to inhibition assay with a slight modification. Wells of the micro-titer plate was inoculated with (200 μL) bacterial subculture (PAO1 subculture OD600 ˜0.1). The plates were incubated at 37° C. for 24 hours to allow biofilm formation. After 24 hours, bacterial culture was gently pipetted out and appropriate volume of DSH were added followed by addition of fresh LB medium (200 μL). The microtiter plate was incubated for an additional 24 hours at 37° C., following which, similar to work up of inhibition assay, culture was removed, wells were washed and CV-dye was introduced, followed by washing and destaining with 30% AcOH solution in water and quantification at 600 nm. Here again, only the surface attached biofilm dispersed was reported by comparing wells with DSHs with wells with no agent.
Dose dependence assays for biofilm inhibition and dispersion. […] Both for biofilm inhibition and dispersion, predetermined volumes of DSH stocks were added to the assigned wells to span a concentration range between 0.5 μM-170 μM. Percent biofilm inhibition of dispersion was calculated by comparing to wells with no agent. The percent biofilm inhibition or dispersion was plotted versus concentration of DSHs. The linear values were logarithmically curve fitted using equation […]. The half maximal inhibitory concentration for both biofilm inhibition and dispersion (IC50 and DC50) were thus obtained.

wild type PAO1 = test: Swarming motility of wild type PAO1 on soft agar (antagonist assay)
Protocol: In contrast, the wild type P. aeruginosa produces the rhamnolipids and is capable of swarming on soft agar gel (˜0.5% agar). […] We note that saccharide hydrocarbons may also promote the swarming motility, but such promotions are less unambiguous than the inhibition for wild type PAO1. Such promotion will be unambiguous in the agonist assay using the nonswarming mutant rhlA.
as §1, §2

PAO1 biofilm [3] = test: Crystal violet based static biofilm inhibition assay, DSHs in LB media (Examples 2 and 4); details: for Inhibition of PAO1 biofilm formation (surface attached): 160 μM, 24 h, LB media
Protocol: The ability of DSHs was tested to inhibit Pseudomonas aeruginosa adhesion, biofilm and to disperse pre-formed biofilm. To quantify the amount of PAO1/EGFP attached on the surface of micro titer plates with or without the synthesized DSHs, fluorescence emitted by green fluorescent proteins (GFP) was quantified (see supporting info for details). Crystal violet (CV) based static biofilm assay (see supporting info) was used to screen the anti-biofilm potencies of all synthesized agents. Both surface attached (SA) (FIG. 17) and total (SA+air-liquid interface) biofilm of P. aeruginosa was quantified. […] CV assays were also used to quantify the amount of P. aeruginosa biofilm remaining after dispersion experiments (FIG. 19). Initially, all agents were screen for anti-biofilm activities (both inhibition and dispersion) at 160 μM. […] All reported biofilm inhibition results are an average of 4 identical wells.
as §3, with “The percent inhibition was calculated by comparing biofilm content of wells with no added agents (control) with the biofilm content from wells that had 160 μM of DSHs (FIG. 29A).” left out
Crystal violet (CV) based-biofilm inhibition assay. Inhibitory effect of all synthesized disaccharide hydrocarbons on biofilm formation of Pseudomonas aeruginosa (wild type PAO1) was determined by static biofilm inhibition assay using crystal violet staining. Overnight culture of PAO1 were sub cultured in LB media to OD600 of 0.01 and further the OD600 was allowed to reach ˜0.1. The bacterial sub-culture (200 μL) was then added into the wells of a microtiter plate. Predetermined concentrations of DSHs were added to respective wells containing sub culture by pipetting out fixed volume of sterile aqueous stock solutions (except DβL (7), SPOT, (15) and 2-ODαC (17), which were introduced as stocks prepared in H2O […] and EtOH (90:10) solutions). The microtiter plates were then wrapped in GLAD Press n′ Seal® (saran wrap) and further incubated under stationary conditions for 24 h at 37° C. After 24 h incubation, the culture media was discarded by pipetting carefully (without disrupting biofilm), the plate was then washed once with sterile water (200 μL) and allowed to dry at 37° C. for ˜30 mins. Microtiter plates were then stained with 0.1% aqueous solution of crystal violet (CV) (200 μL) at rt for ˜30 mins. Following this, the CV stain was removed and plate was again washed with sterile water (200 μL). Resultant CV stain in the well was then solubilized by adding 100 μL of 30% AcOH solution (in water) and mixing gently by pipetting.

CCCCCCCCCCC(CO[C@@H]1O[C@H](CO)[C@@H](O[C@H]2O[C@H](CO)[C@@H](O)[C@H](O)[C@H]2O)[C@H](O)[C@H]1O)Cc1ccc(C(C)(C)C)cc1 (stereo partly drawn) [4-tBuBDβM, 4-tertiary butyl benzyl dodecyl β-maltoside]
Inhibition of PAO1 biofilm (PAO1 biofilm [1]): 74%
Swarming motility of rhlA mutant [2]: did not exhibit any significant activation of swarming

CCCCCCCCCCC(CCCCCCCC)CO[C@@H]1O[C@H](CO)[C@@H](O[C@@H]2O[C@H](CO)[C@@H](O)[C@H](O)[C@H]2O)[C@H](O)[C@H]1O (stereo partly drawn) [2-ODβC (16), 2-octyl-dodecyl-β-cellobioside]
Swarming motility of rhlA mutant [2]: no apparent effect on rhlA
Dispersion of 24-h old PAO1 biofilm (1-day old PAO1 biofilm): not active for biofilm inhibition or dispersion
Swarming motility of wild type PAO1 (wild type PAO1; 85 μM in soft agar, 24 h): inhibited the swarming motility of wild type PAO1
Effect on PAO1 swarming (wild type PAO1; concentration not given): did exhibit inhibition of PAO1 swarming; also recorded: inhibits the swarming activities of PAO1; also recorded: PAO1 swarming inhibitors
Inhibition of PAO1 biofilm formation (surface attached) (PAO1 biofilm [3]; listed as 16: 2-ODβC, 160 µM): ineffective at biofilm inhibition
Anti-biofilm activity (biofilm inhibition) (PAO1 biofilm [3]; concentration not given): not effective at inhibiting the biofilm formation

CCCCCCCCCCC(CCCCCCCC)CO[C@H]1O[C@H](CO)[C@@H](O[C@@H]2O[C@H](CO)[C@@H](O)[C@H](O)[C@H]2O)[C@H](O)[C@H]1O (stereo partly drawn) [2-ODαC (17), 2-octyl-dodecyl-α-cellobioside]
Dispersion of 24-h old PAO1 biofilm (1-day old PAO1 biofilm): not active for biofilm inhibition or dispersion
Inhibition of PAO1 biofilm formation (surface attached) (PAO1 biofilm [3]): not active for biofilm inhibition or dispersion
Inhibition of PAO1 biofilm formation (surface attached) (PAO1 biofilm [3]; listed as 17: 2-ODαC, 160 µM): ineffective at biofilm inhibition

benzyl decyl β-maltoside [BDeβM]
Inhibition of PAO1 biofilm (PAO1 biofilm [1]): 50%
Swarming motility of rhlA mutant [2]: swarming motility with without well-defined tendrils
